In publication PMC8404221 (European journal of pharmaceutical sciences : official …, 2021):
Values joined by “and” are separate entries in the source; they are usually repeats but may differ in a detail not shown here. Equal entries are not always repeated. Where two headings read alike, the source gives them in different places. Marks after values point to notes of the source that are not given here.

Key:
H4 cells [1] = assay: High content imaging assay; type: cell-based, human; conditions: 72 h, read-out: H4 (nuclear count) IC50
[2] = target: T1, Monoamine oxidase-A (MAO-A) (Homo sapiens, UniProt P21397); assay: biochemical; type: biochemical
T1 sequence (P21397 1-527): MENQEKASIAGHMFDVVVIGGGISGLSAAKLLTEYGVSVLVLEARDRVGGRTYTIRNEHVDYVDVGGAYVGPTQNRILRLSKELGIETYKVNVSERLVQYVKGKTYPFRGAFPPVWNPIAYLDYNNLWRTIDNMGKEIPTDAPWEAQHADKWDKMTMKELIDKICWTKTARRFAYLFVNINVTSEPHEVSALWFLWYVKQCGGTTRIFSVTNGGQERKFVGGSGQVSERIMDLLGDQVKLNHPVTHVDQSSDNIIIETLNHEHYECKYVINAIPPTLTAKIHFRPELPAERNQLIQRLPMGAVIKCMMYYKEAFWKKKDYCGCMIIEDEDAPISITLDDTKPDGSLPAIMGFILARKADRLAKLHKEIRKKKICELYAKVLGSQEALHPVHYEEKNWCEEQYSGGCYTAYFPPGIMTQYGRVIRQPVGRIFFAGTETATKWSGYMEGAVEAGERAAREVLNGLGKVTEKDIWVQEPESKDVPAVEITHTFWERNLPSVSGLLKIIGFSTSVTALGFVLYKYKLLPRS

DYRK1A [3] = target: T2, DYRK1A (Homo sapiens, UniProt Q13627); assay: biochemical; type: biochemical
MAO-A = conditions: read-out: MAO-A IC50, published, ref Bálint et al., 2017, Clarke and Ramsay, 2011, Herraiz and Brandt, 2014, Herraiz and Chaparro, 2005, Ionescu et al., 2012, Kim et al., 1997, Rahman and Rahmatullah, 2010, Reniers et al., Rommelspacher et al., 1994, Rüben et al., 2015, Santillo et al., Wurzlbauer et al., 2020; cited from earlier work
U87 cells [4] = assay: High content imaging assay; type: cell-based, human; conditions: 72 h; for inhibition at 66 µM / IC50: Homo sapiens, U-87 MG; for inhibition at 66 µM: read-out: U87 (nuclear count) % inhibition at highest dose tested; for IC50: read-out: U87 (nuclear count) IC50; for U87 (nuclear count) % inhibition at highest dose tested: Hoechst 33342 high content imaging, highest dose tested (66 μM)
U87 cells [5] = assay: PrestoBlue cell proliferation/viability assay; type: cell-based, human; conditions: 72 h; for U87 (cell proliferation) % inhibition at highest dose tested: PrestoBlue; for IC50: Homo sapiens, U-87 MG, read-out: U87 (cell proliferation) IC50
H4 cells [6] = assay: PrestoBlue cell proliferation/viability assay; type: cell-based, human; conditions: 72 h; for IC50: Homo sapiens, read-out: H4 (cell proliferation) IC50
DYRK1A [7] = target: T2, DYRK1A; assay: biochemical; type: binding; conditions: for inhibition at 6.7 µM: read-out: DYRK1A inhibition in pilot HTS
DYRK1A [8] = target: T2, DYRK1A; conditions: read-out: DYRK1A IC50, published values, ref Adayev et al., 2011, Bain et al., 2007, Bálint et al., 2017, Bruel et al., 2014, Foucourt et al., Göckler et al., 2009, Grabher et al., 2012, Kim et al., 2016, Kumar et al., 2018, Liu et al., 2017b, PubChem; cited from earlier work
DYRK1B = DYRK1B (Homo sapiens, UniProt Q9Y463); assay: Kinase selectivity panel; type: biochemical; conditions: 10 μM, n = 2
CLK1 [9] = target: T3, CLK1 (Homo sapiens, UniProt P49759); assay: Kinase selectivity panel; type: biochemical; conditions: 10 μM, n = 2
DYRK1A [10] = target: T2, DYRK1A; assay: Kinase selectivity panel; type: biochemical; conditions: 10 μM, n = 2
PIM1 = PIM1 (Homo sapiens, UniProt P11309); assay: Kinase selectivity panel; conditions: 10 μM, n = 2
CK1α1 = CK1α1 (Homo sapiens, UniProt P48729); assay: Kinase selectivity panel; conditions: 10 μM, n = 2
[11] = test system: U87 human glioblastoma cells; assay: U87 glioma tumor xenograft in nude NU/J mice; type: in vivo; conditions: for Effect on body weight: up to 21 days; for Tremor activity in treated mice: anecdotal observation, duration of the study
CLK1 [12] = target: T3, CLK1; assay: InCELL Hunter / PathHunter in-cell target engagement assay; type: cell-based; conditions: for Effect on β-gal activity (CLK1 target engagement): 0.5, 5 and 50 μM
panel of 10 kinases = assay: Kinase selectivity panel; conditions: 10 μM
DYRK2 = target: T4, DYRK2 (Homo sapiens, UniProt Q92630); assay: Kinase selectivity panel; conditions: 10 μM, n = 2
T4 sequence (Q92630 1-601): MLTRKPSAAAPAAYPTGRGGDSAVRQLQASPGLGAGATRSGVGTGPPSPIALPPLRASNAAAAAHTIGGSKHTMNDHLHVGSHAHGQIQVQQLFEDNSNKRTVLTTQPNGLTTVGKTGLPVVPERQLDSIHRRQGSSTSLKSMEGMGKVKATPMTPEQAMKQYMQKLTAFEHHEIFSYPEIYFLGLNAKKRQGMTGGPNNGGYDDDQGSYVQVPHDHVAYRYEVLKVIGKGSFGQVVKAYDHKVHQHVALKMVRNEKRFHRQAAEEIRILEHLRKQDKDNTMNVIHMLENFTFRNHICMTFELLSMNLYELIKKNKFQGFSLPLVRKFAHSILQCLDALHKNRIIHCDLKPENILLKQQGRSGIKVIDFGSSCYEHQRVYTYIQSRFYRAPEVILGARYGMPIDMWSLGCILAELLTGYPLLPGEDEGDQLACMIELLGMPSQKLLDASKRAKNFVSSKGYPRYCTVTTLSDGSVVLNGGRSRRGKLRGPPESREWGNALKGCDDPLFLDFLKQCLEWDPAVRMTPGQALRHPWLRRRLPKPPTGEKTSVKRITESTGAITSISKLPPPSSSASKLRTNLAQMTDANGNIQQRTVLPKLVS

[13] = using TR-FRET DYRK1A IC50 values
[14] = DYRK1A IC50, TR-FRET, 10-point 2-fold dose response

T3 sequence (P49759 whole entry): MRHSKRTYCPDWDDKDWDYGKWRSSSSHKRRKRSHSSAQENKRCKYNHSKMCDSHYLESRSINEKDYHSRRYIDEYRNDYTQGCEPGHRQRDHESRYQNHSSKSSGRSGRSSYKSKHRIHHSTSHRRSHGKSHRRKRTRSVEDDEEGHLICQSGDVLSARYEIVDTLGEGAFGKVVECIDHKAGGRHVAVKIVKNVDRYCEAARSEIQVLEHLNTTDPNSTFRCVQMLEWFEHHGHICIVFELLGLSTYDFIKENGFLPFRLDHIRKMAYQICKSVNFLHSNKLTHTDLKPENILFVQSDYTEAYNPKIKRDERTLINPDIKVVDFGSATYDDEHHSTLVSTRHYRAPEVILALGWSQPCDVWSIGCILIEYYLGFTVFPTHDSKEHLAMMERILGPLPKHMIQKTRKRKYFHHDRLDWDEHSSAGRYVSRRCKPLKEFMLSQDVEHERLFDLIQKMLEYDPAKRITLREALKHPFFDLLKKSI
Sequence of DYRK1B (Q9Y463 whole entry): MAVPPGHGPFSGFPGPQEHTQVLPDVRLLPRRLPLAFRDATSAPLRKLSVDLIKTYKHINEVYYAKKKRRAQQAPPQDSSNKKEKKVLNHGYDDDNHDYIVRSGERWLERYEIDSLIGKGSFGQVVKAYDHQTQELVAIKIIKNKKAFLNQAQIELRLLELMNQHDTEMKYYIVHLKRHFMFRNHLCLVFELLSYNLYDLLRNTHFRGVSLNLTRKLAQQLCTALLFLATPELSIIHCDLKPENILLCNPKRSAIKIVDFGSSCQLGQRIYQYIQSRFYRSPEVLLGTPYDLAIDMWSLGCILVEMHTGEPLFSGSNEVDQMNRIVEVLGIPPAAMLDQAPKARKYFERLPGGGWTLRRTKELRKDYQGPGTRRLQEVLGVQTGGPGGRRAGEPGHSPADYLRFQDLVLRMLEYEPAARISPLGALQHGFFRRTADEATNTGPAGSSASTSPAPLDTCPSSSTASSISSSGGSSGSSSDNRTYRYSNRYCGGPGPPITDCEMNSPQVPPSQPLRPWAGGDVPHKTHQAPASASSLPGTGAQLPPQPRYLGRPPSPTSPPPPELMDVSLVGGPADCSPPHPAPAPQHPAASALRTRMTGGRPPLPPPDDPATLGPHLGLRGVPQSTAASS
Sequence of PIM1 (P11309 whole entry): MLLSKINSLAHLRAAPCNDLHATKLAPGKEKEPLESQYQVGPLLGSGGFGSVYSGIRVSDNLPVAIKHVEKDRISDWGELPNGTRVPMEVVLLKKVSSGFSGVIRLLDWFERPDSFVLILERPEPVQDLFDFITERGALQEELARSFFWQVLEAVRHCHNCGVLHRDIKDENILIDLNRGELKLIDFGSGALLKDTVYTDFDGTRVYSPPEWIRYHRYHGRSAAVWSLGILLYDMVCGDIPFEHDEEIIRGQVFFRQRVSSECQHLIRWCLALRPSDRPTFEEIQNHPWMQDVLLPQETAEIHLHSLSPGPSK
Sequence of CK1α1 (P48729 whole entry): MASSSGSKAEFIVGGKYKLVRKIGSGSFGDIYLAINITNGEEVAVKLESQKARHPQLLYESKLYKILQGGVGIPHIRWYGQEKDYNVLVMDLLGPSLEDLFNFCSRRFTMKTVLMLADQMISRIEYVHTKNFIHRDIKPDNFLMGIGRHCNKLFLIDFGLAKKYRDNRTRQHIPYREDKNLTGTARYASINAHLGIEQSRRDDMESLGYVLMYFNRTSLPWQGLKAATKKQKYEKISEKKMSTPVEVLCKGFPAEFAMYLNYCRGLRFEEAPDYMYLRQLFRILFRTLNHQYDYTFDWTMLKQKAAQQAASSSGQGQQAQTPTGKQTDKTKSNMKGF

Row | SMILES | IC50 (H4 cells [1]; Homo sapiens) | IC50 ([2]; MAO-A IC50, MAO-A Glo) | DYRK1A:MAO-A (IC50 ratio) [2, 13] | IC50 (DYRK1A [3]) | IC50 (MAO-A) | inhibition at 66 µM (U87 cells [4]) | U87 (cell proliferation) % inhibition at highest dose tested (U87 cells [5]) | IC50 (H4 cells [6]) | IC50 (DYRK1A [7]; [14]) | inhibition at 6.7 µM (DYRK1A [7]) | IC50 (DYRK1A [8]) | further results
1 | COc1ccc2c3c([nH]c2c1)C(C)=NCC3 [Harmaline, harmaline] | 14.9 µM | 0.09 µM | 26.1 | 0.79 µM | 0.005 to 0.02 µM | ~66% | 14% ^c | 19.6 µM | 2.35 µM | 81% | 1.24 to 4.59 µM | Fold more potent on MAO-A over DYRK1A ([2]; DYRK1A TR-FRET vs MAO-A): ~ 25 fold and ~ 30 fold; IC50 ([2]; MAO-A IC50, MAO-Glo): 0.06 to 0.09 µM
2 | CC1=NCCc2c1[nH]c1cc(O)ccc21 [Harmalol, harmalol] | 25.2 µM | 0.66 µM |  | 0.18 µM | 0.153 µM | < 50% | 37% ^c | 23.7 µM | 0.63 µM | 79% |  | DYRK1A:MAO-A (IC50 ratio) [2]: 1.0; Reduction in enzyme activity, DYRK1B (DYRK1B): ~100%; Fold lower activity against DYRK1A than harmol (DYRK1A [7]): ~ 6 fold; Reduction in enzyme activity, CLK1 (CLK1 [9]): ~100%; Reduction in enzyme activity, DYRK1A (panel) (DYRK1A [10]): ~100%
3 | Cc1nccc2c1[nH]c1ccccc12 [Harmane, harmane] | 17.1 µM | 0.64 µM | 4.2 | 1 µM | 0.029 to 0.337 µM | ~50% | 30% ^c | > 25 µM | 2.68 µM | 71% | 1.82 µM | 
4 | COc1ccc2c(c1)[nH]c1c(C)nccc12 [Harmine, harmine, reference compound] | 14.9 µM |  |  |  | 0.003 to 0.107 µM |  |  | 4.9 µM |  | 74% |  | Reduction in enzyme activity, PIM1 (PIM1): ≥ 70%; IC50 (U87 cells [4]): 17.6 µM; IC50 (U87 cells [5]): > 25 µM; Reduction in enzyme activity, CK1α1 (CK1α1): ≥ 70%; Tumor inhibition rate ([11]; 15 mg/kg i.p. q.d.): 16.5%; Effect on body weight ([11]; 15 mg/kg i.p. q.d.): did not lead to significant differences in body weight; Tremor activity in treated mice [11]: no tremor activity; Effect on β-gal activity (CLK1 target engagement) (CLK1 [12]): increase in β-gal activity
5 | Cc1[nH]ccc2c1[nH]c1cc(=O)ccc12 [Harmol, harmol] | 20 µM | 0.5 µM | 0.2 | 0.016 µM | 0.53 µM |  |  | 10.9 µM | 0.1 µM | 78% | 0.044 to 0.298 µM | Fold weaker than harmine for MAO-A [2]: 10 fold; Number of the 10 kinases displaying 50% or greater inhibition (panel of 10 kinases): 7; Fold more potent IC50 with 33P-ATP assay versus TR-FRET (DYRK1A [3]; DYRK1A): 6–7 fold; IC50 (U87 cells [4]): 20.8 µM; IC50 (U87 cells [5]): 19.1 µM; IC50 (DYRK1A [7]; DYRK1A IC50, TR-FRET, dose response): 0.07 to 0.1 µM; Tumor inhibition rate ([11]; 15 mg/kg i.p. q.d.): 28.2%; Effect on body weight ([11]; 15 mg/kg i.p. q.d.): did not lead to significant differences in body weight; Tumor inhibition rate ([11]; 60 mg/kg i.p. q.d.): 38.1%; Effect on body weight ([11]; 60 mg/kg i.p. q.d.): did not lead to significant differences in body weight; Survival (Kaplan-Meier) compared to vehicle ([11]; 60 mg/kg i.p. q.d., not statistically significant): trend towards improved survival; Tremor activity in treated mice [11]: no tremor activity; Tumor growth ([11]; high dose (60 mg/kg), day 21, not reaching significance): modest decrease in tumor growth; Effect on β-gal activity (CLK1 target engagement) (CLK1 [12]): increase in β-gal activity
6 | COC(=O)[C@@]1(O)C[C@H]2O[C@]1(C)n1c3ccccc3c3c4c(c5c6ccccc6n2c5c31)C(=O)NC4 [K252a] |  |  |  |  |  |  |  |  |  |  |  | EC50 (CLK1 [12]; read-out: CLK1 cellular target engagement EC50, positive control inhibitor): 0.0087 µM
7 | c1ccc2c(c1)[nH]c1cnccc12 [Norharmane, norharmane] | 29.1 µM |  |  | 3.19 µM | […] |  | No inhibition ^c | > 25 µM | 5.46 µM |  | 8.75 µM | U87 (nuclear count) % inhibition at highest dose tested (U87 cells [4]): No inhibition ^c
8 | CN[C@@H]1C[C@H]2O[C@@](C)([C@@H]1OC)n1c3ccccc3c3c4c(c5c6ccccc6n2c5c31)C(=O)NC4 [Staurosporine, reference compound] |  |  |  |  |  |  |  |  |  |  |  | MAO-A IC50, MAO-A Glo [2]: No inhibition
9 | COc1ccc2c3c([nH]c2c1)[C@@H](C)NCC3 [Tetrahydroharmine, tetrahydroharmine] |  |  | 6.2 |  |  |  | No inhibition ^c |  |  |  | 2.99 µM | IC50 (H4 cells [1]; Hoechst 33342 high content imaging): 26.9 µM; Reduction in enzyme activity, DYRK2 (DYRK2): minimal effect; IC50 ([2]; read-out: MAO-A IC50, MAO-A Glo): 1.52 µM; IC50 (DYRK1A [3]; read-out: DYRK1A IC50, 33P-ATP, casein substrate, ATP 10 μM, data generated by Reaction Biology): 6.42 µM; U87 (nuclear count) % inhibition at highest dose tested (U87 cells [4]): ~50% ^c; H4 (cell proliferation) % inhibition at highest dose tested (H4 cells [6]; PrestoBlue, highest dose tested): 38%^c; IC50 (DYRK1A [7]; read-out: DYRK1A IC50, TR-FRET, 10-point 2-fold dose response): 9.41 µM; IC50 (DYRK1A [7]; read-out: DYRK1A IC50, TR-FRET, 10-point 2-fold dose response, listed as tetrahydroharmine): 9.4 µM
